According to patent US20140308298A1, “Diagnostic and Treatment of an Androgen-Independent Prostate Cancer” (UNIVERSITE D'AIX MARSEILLE, priority 2011, published 2014):

Legend:
Du145 cells [1] = assay: Western blot of phosphorylated cRaf, MEK1/2, ERK and Akt in Du145 cells; type: cell-based, human
Procedure: (§1) FIG. 2: Adrenomedullin stimulates Du145 cell proliferation and invasion in vitro. A, AM induced cAMP formation in cultured Du145 cells. Cells (3×10^4 cells/ml) were treated with AM (10^−9 M-10^−7 M) for different times. Each value is the mean±SEM of three independent experiments performed in quadruplate (*, p<0.05; **, p<0.01; ***, p<0.001). B, oppose effects of AM and αAM on the growth of Du145 cells in vitro. For proliferation assays, Du145 cells were seeded at the density of 1×10^4 per well in 6 multiwell plates in presence of RPMI 1640 medium supplemented with 5% FBS. AM at 10^−7 M and αAM (70 μg/ml) were added. As control, rabbit control IgG (70 μg/ml) of irrelevant specificity was used. For each treatment, three wells were prepared, exposed to trypsin and cells were counted in Coulter Counter. Each bar represents the mean±SEM of four independent experiments (**, p<0.01; ***, p<0.001). C, AM stimulates Du145 cells invasion in vitro. Du145 cells (1.5×10^4 cells) were added into Biocoat Matrigel invasion upper chamber and 10^−7 M of AM were added into the lower chamber, and after 6 h, noninvaded cells in the upper membrane were removed and cells invading into the lower membrane were quantified by fluorescence by adding DAPI reagent at least 45 min before taking the reading. RPMI 1640 containing 2% FBS was used as control. bFGF was used as positive control. Data are expressed as the number of migrated cells in 10 high-power fields and are the means of results from three independent experiments. Each bar represents the mean±SEM (**, p<0.01; ***, p<0.001). D, intracellular signalling pathway induced by AM in Du145 cells. Western blot analysis of phosphorylated cRAF (pcRAF), pMEK1/2, pERK (44 and 42 kDa) and ERK in Du145 cells, stimulated with AM (5×10^−7 M) for 2, 5, 10, 20, and 30 min. AM (5×10^−7 M)-induced phosphorylation of ERK was inhibited by mitogen-activated protein kinase kinase inhibitor, U0126 (10 μM, 30 min). EGF was used as positive control known to stimulate phosphorylation of cRAF, MEK, and ERK. To assess the amount of proteins loaded for each sample, immunoblot analysis was performed with anti-α-actin.
Western blotting analysis: Cell extracts were prepared and processed for CLR, RAMP2 and RAMP3 western blot analysis as described (29). Immunoblotting of phospho-c-Raf, phospho-MEK1/2, phospho-ERK1/2, and ERK1/2 was performed using MAPK-phospho-ERK1/2 pathway samples kit (Cell Signaling Technologie, Inc.).

PC-3 cells [2] = assay: Cell proliferation assay, PC3 cells; type: cell-based, human; conditions: AM 10^-7 M or αAM 70 μg/ml; 2% FBS
Procedure: (§2) FIG. 9: Effect of AM on PC3 cells in vitro. A, expression of AMR mRNAs in PC3 cells. Total RNA (1 μg) DNA-free from PC3 cell line was reverse transcribed into cDNA and subjected to real-time quantitative reverse transcription (RT)-PCR for the estimation of relative CLR, RAMP2 and RAMP3 mRNAs to 18S rRNA ratio. B, effects of AM and αAM on the growth of PC3 cells in vitro. For proliferation assays, PC3 cells were seeded at the density of 2×10^4 per well in 24 multiwell plates in the presence of RPMI 1640 medium supplemented with 2% FBS. AM at 10^−7M or αAM (70 μg/ml) were added. As control, rabbit control IgG (70 μg/ml) of irrelevant specificity was used. For each treatment, six wells were prepared, exposed to trypsin and cells were counted in Coulter Counter. Each bar represents the mean±SEM of four independent experiments. […] PC3 cells (3×10^4 cells) were added into Biocoat Matrigel invasion upper chamber and 10^−7 M of AM were added into the lower chamber, and after 6 h, non-invaded cells in the upper membrane were removed and cells invading into the lower membrane were quantified by fluorescence by adding DAPI reagent 45 min before taking the reading. Data are expressed as the number of migrated cells in 10 high-power fields and are the means of results from three independent experiments each performed in triplicate. bFGF was used as positive control. […]

Du145 cells [3] = assay: Cell proliferation assay, Du145 cells; type: cell-based, human; conditions: AM 10^-7 M
Procedure: as §1, with “C, AM stimulates Du145 cells invasion in vitro.” left out, “RPMI 1640 containing 2% FBS was used as control. bFGF was used as positive control.” left out, “Each bar represents the mean±SEM (**, p<0.01; ***, p<0.001). D, intracellular signalling pathway induced by AM in Du145 cells. Western blot analysis of phosphorylated cRAF (pcRAF), pMEK1/2, pERK (44 and 42 kDa) and ERK in Du145 cells, stimulated with AM (5×10^−7 M) for 2, 5, 10, 20, and 30 min. AM (5×10^−7 M)-induced phosphorylation of ERK was inhibited by mitogen-activated protein kinase kinase inhibitor, U0126 (10 μM, 30 min). EGF was used as positive control known to stimulate phosphorylation of cRAF, MEK, and ERK. To assess the amount of proteins loaded for each sample, immunoblot analysis was performed with anti-α-actin.” left out

LNCaP cells [4] = assay: Matrigel invasion assay (modified Boyden chamber), LNCaP cells; type: cell-based, human
Procedure: (§3) FIG. 10: Effect of AM and αAM on LNCaP cells in vitro. A, total RNA (1 μg) DNA-free from LNCaP cell line was reverse transcribed into cDNA and subjected to real-time quantitative reverse transcription (RT)-PCR for the estimation of relative CLR, RAMP2 and RAMP3 mRNAs to 18S rRNA ratio. B, effects of AM and αAM on LNCaP cells growth in vitro. For proliferation assay, LNCaP cells were seeded and treated in the presence of 5% FBS as described for PC3 cells in FIG. 9. C, no effects of AM on LNCaP cells invasion in vitro. For invasion assays, LNCaP cells (5×10^4 cells) were seeded on a Matrigel layer in a boyden chamber assay and analyzed as described for PC3 cells in FIG. 9.
Cell migration and invasion assays: The migration and chemoinvasion were assessed using a modified Boyden chamber assay (7). Du145 (15×10^−3), LNCaP (50×10^−3), and PC3 (30×10^−3) cells were added to the upper compartment during 6 h. For LECs, (30×10^−3) cells were added during 48 h for invasion and 20 h for migration.

[5] = test system: lymphatic endothelial cells; assay: LEC death after serum deprivation; type: cell-based, human; conditions: AM 10^-7 M
Procedure: FIG. 12. AM is a growth factor survival for lymphatic endothelial cells. Time course of LEC death after DMEM serum deprivation in the absence and presence of AM (10^−7M). Exponentially growing cells were changed into serum-free medium, and all floating cells after 12, 24 and 48 h were counted with a coulter counter. Each point and bar represents mean±SEM (n=6); values were normalized to the total number of floating dead cells 48 h after serum deprivation in the absence of AM, which was set at 100%. **, p<0.01.

Du145 cells [6] = assay: Cyclic AMP assay in Du145 cells; type: cell-based, human
Procedure: as §1, with “To assess the amount of proteins loaded for each sample, immunoblot analysis was performed with anti-α-actin.” left out

human LEC = assay: Proliferation, migration and invasion of human LECs in vitro; type: cell-based; conditions: AM 10^-7 M; proliferation 6 days, migration 20 h, invasion 48 h
Procedure: Neonatal Human Dermal Lymphatic Microvascular Endothelial Cells (HMVEC-dLyNeo) were purchased from Lonza (Lonza, Basel, Switzerland), and expanded in microvascular endothelial cell growth medium-2 (EGM-2MV, Lonza) with growth supplements (EGM-2MV, Lonza). A, total RNA (1 μg) DNA-free from LECs was reverse transcribed into cDNA and subjected to real-time quantitative reverse transcription (RT)-PCR for the estimation of relative AM, CLR, RAMP2 and RAMP3 mRNAs to 18S rRNA ratio. B, oppose effect of AM and αAM on the growth of LECs in vitro. For proliferation assay, LECs were seeded at the density of 3.5×10^4 per well in 6 multiwell plates in the presence of EBM-2 medium supplemented with 0.5% FBS. AM (10^−7 M) and αAM (70 μg/ml) were added for 6 days treatment. After treatment, cells were exposed to trypsin and were prepared for cell number counting in a coulter counter. […] Cells migrating through the filter were counted after 20 h (C) and those migrating in presence of Matrigel were counted after 48 h (D). Data are expressed as the number of migrated cells in 10-high-power fields, and the values represent the mean±SEM of three independent experiments each performed in triplicate (*p<0.05; **p<0.01; ***p<0.001).
Cell migration and invasion assays: The migration and chemoinvasion were assessed using a modified Boyden chamber assay (7). […]

Du145 cells [7] = assay: Matrigel invasion assay (modified Boyden chamber), Du145 cells; type: cell-based, human
Procedure: as §1, with “C, AM stimulates Du145 cells invasion in vitro.” left out, “RPMI 1640 containing 2% FBS was used as control. bFGF was used as positive control.” left out, “Each bar represents the mean±SEM (**, p<0.01; ***, p<0.001). D, intracellular signalling pathway induced by AM in Du145 cells. Western blot analysis of phosphorylated cRAF (pcRAF), pMEK1/2, pERK (44 and 42 kDa) and ERK in Du145 cells, stimulated with AM (5×10^−7 M) for 2, 5, 10, 20, and 30 min. AM (5×10^−7 M)-induced phosphorylation of ERK was inhibited by mitogen-activated protein kinase kinase inhibitor, U0126 (10 μM, 30 min). EGF was used as positive control known to stimulate phosphorylation of cRAF, MEK, and ERK. To assess the amount of proteins loaded for each sample, immunoblot analysis was performed with anti-α-actin.” left out

LNCaP cells [8] = assay: Cell proliferation assay, LNCaP cells; type: cell-based, human; conditions: AM 2×10^-7 M; 5% FBS
Procedure: as §3
Cell proliferation assay: The effects of AM, αAM and control IgG on cell proliferation was examined at the indicated time points as described (19).

PC-3 cells [9] = assay: Matrigel invasion assay (modified Boyden chamber), PC3 cells; type: cell-based, human; conditions: AM 10^-7 M, 6 h
Procedure: as §2

N#CC(=C(/N)Sc1ccccc1N)/C(C#N)=C(\N)Sc1ccccc1N [U0126]
inhibition of p-ERK induced by AM (Du145 cells [1]; U0126 10 μM, 30 min, AM 5×10^-7 M): completely inhibited

adrenomedullin [AM]
proliferative response of PC-3 cells (PC-3 cells [2]): no proliferative responses
stimulation of proliferation compared with untreated cells (Du145 cells [3]; 6 days): 51±9.9%
stimulation of proliferation compared with untreated cells (Du145 cells [3]; 8 days): 96±14.6%
effect on LNCaP cells invasion (LNCaP cells [4]): No effect
apoptosis (floating cells) after serum deprivation ([5]; persisted during 48 h, LECs): prevented the apoptosis
apoptotic cell death of adherent culture ([5]; serum deprived LECs): markedly suppressed
time at which cAMP increase reached a maximum (Du145 cells [6]; AM 10^-7 M): 5 min
increase in cAMP content (Du145 cells [6]; AM 10^-7 M, IBMX 10^-4 M): 2.8±0.14 fold
stimulation of cAMP formation with graded concentration (Du145 cells [6]; AM 10^-9-10^-7 M, 5 min): dose-dependent stimulation
levels of p-MEK and p-ERK (Du145 cells [1]; AM 5×10^-7 M, as early as 2 and 5 min, sustained up to 30 min): significantly increased
cRaf phosphorylation (Du145 cells [1]; AM 5×10^-7 M, as early as 2 min, control levels up to 10 min): increased cRaf phosphorylation
level of p-Akt (Du145 cells [1]; AM stimulation): not markedly increased
effect of AM on LECs (human LEC): induces proliferation, migration and invasion of LECs
increase of invasion compared with control (Du145 cells [7]; AM 10^-7 M in bottom wells, 6 h): 92±22%
growth rates of LNCaP cells versus control cells (LNCaP cells [8]): slight decrease in the growth rates
induction of invasion (PC-3 cells [9]): 144±7.6%

bFGF: Growth factor used as positive control in invasion and migration assays
effect on invasion relative to AM (Du145 cells [7]; bFGF 10^-6 M, positive control): similar
